This is an account of results in ChEMBL document CHEMBL1201862, “PubChem BioAssay data set” (2004).

Where “and” joins values, the source holds several entries; their conditions need not be identical. Identical values can stand only once.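 Values below derive from 48-hour exposures of cells grown in 96-well plates, with endpoints linearly interpolated between the two concentrations bracketing the appropriate inhibition level. GI50 marks 50% less growth.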 Calls of active or inactive are those of the source. Cut-off read from the data, not from the text of the source: active = GI50 up to about 1.1 µM and inactive = higher.

Common to all, as to experiment: growth of human tumour cells (NCI), 48 h
Assay [1] has as its system DMS-114.
Assay [2] deals with DU-145.
Assay [3] deals with MDA-MB-231.
The test system of assay [4] is MDA-MB-435.
Assay [5] concerns MDA-N.
In assay [6] the test system is T47D.
Assay [7] has as its system M19-MEL.
Assay [8] deals with RXF 631.
Assay [9] has as its system 786-0.

Turning to `CC1=C2C(O)C(C(C)C(=O)NC(C)C)CCC2(C)C=CC1=O` (configuration not stated), the GI50 in assay [1] is > 100 µM (inactive).
`COC1OC2COC(c3ccccc3)OC2C(OC(=S)c2ccccc2)C1O` (configuration not stated): the GI50 is > 100 µM (inactive) in [2]; 14.7 µM (inactive) in assay [3]; 10.9 µM (inactive) in assay [4]; > 100 µM (inactive) in assay [5]; 1.91 µM (inactive) in assay [6].
As to `N#CN=C(NCCO)NCCO`, the GI50 in [1], in assay [7] and in assay [8] was > 100 µM (inactive) each time.
Take `COC(=O)c1cc(-c2cccn2C)c2c(c1C(=O)OC)c1ccccc1n2C`: the GI50 in assay [9] is > 100 µM (inactive); in assay [1], 40.3 µM (inactive); in assay [8], 80.4 µM (inactive).
Turning to `Cc1cccc(NC(=O)/C(=N\N)C(c2cnc3ccc([N+](=O)[O-])cc3n2)[N+](=O)[O-])c1C` (configuration not stated), the GI50 in [9] was > 100 µM (inactive); in assay [1] it was 51.3 µM (inactive); in [7], > 100 µM (inactive); in [8], > 100 µM (inactive).
Take `COC(=O)C(C(=O)C(=O)Nc1nnc(S)[nH]1)c1csc(-n2nc(-c3ccccc3)cc2-c2ccccc2)n1` (configuration not stated): the GI50 in assay [9] and in assay [7] was > 100 µM (inactive) in each case.
As to `COc1nc(C#CCC(C)O)nc(OC)n1` (configuration not stated), the GI50 was 22.9 µM (inactive) in assay [2]; 21.2 µM (inactive) in [3]; 17.9 µM (inactive) in assay [4]; 30.6 µM (inactive) in assay [5]; 47.8 µM (inactive) in [6].
For the compound `COc1ccc(/C(Cl)=C(\C=O)c2ccc(F)cc2)cc1OC`, the values for the GI50 in assay [1], in [7] and in [8] were 14.4 µM (inactive), 21 µM (inactive) and 19.9 µM (inactive), respectively.
On to `COCCCNc1nc(N)c(C#N)c(C#N)c1C#N`, for which the GI50 in assay [2], in assay [3], in assay [4], in [5] and in [6] was > 10 µM (inactive) in each case.
Turning to `Oc1ccc2ccccc2c1/N=N/c1ccccc1`, the GI50 in [2] was > 100 µM (inactive); in assay [3] it was 54.5 µM (inactive) and > 82.4 µM (inactive); in assay [4], > 100 µM (inactive); in assay [5], > 100 µM (inactive).
Regarding `C1=N\CCOCC/N=C\c2ccc(cc2)OCc2cccc(n2)COc2ccc/1cc2`, the GI50 is > 100 µM (inactive) in assay [9]; > 100 µM (inactive) in assay [2]; 54.6 µM (inactive) in assay [3]; > 100 µM (inactive) in [4]; > 100 µM (inactive) in [5].
`Cc1ccc(N2C(=O)C3CSCN3C2=O)cc1` (configuration not stated): the GI50 in assay [1] and in [7] was > 100 µM (inactive) throughout.
For `CC(=O)OC1CCC2(C)C3CCC4(C)C(c5ccc(=O)oc5)CC5OC54C3CCC2(O)C1` (configuration not stated), the GI50 in assay [1] is 0.109 µM (active); in assay [7] it was 2.21 µM (inactive).
`C=CCc1c(O)c2c(c3oc(=O)cc(C)c13)CC(C)O2` (configuration not stated): the GI50 was > 100 µM (inactive) in assay [1] and 72.4 µM (inactive) in assay [7].
As to `CON(C)c1nc(N(C)OC)nc(N(C)OC)n1`, the GI50 in [2], in assay [3], in assay [4], in assay [5] and in [6] was > 10 µM (inactive) each time.
With `Cc1cn(C2CC(N)C(C(=O)NCC(=O)O)O2)c(=O)[nH]c1=O` (configuration not stated), the GI50 in assay [2], in assay [3], in assay [4], in assay [5] and in [6] was > 100 µM (inactive) each time.
For `CCN1CCC(O)(C(C(=O)O)c2ccccc2)CC1` (configuration not stated), the GI50 in [2], in assay [3], in [4] and in assay [6] was > 100 µM (inactive) throughout.
On to `O=C(NC1C=Nc2ccc([N+](=O)[O-])cc2NC1=O)c1cc(Cl)cc([N+](=O)[O-])c1` (configuration not stated), for which the GI50 is 19.7 µM (inactive) in assay [1] and > 100 µM (inactive) in assay [7].
As to `COc1ccc(NC(=O)CC(=O)N2N=C(N3c4ccccc4Sc4ccccc43)CC2c2ccccc2)cc1` (configuration not stated), the GI50 in assay [9], in [2], in assay [3], in assay [4] and in assay [6] was > 100 µM (inactive) throughout.
